Here are results for 1 molecule from PMC9632086, “Phosphodiesterase 10A (PDE10A) as a novel target to suppress β-catenin and RAS signaling in epithelial ovarian cancer” (Journal of Ovarian Research, 2022).

For this assay, the target named is T1, PDE10A (Homo sapiens, UniProt Q9Y233).
T1 construct: endogenous PDE10A in SKOV3 cells
The assay can be described thus: cellular cAMP immunoassay after […] for […] min, parental and empty-vector cells versus PDE10A knockout clones. The format is cell-based.

T1 sequence (Q9Y233 whole entry): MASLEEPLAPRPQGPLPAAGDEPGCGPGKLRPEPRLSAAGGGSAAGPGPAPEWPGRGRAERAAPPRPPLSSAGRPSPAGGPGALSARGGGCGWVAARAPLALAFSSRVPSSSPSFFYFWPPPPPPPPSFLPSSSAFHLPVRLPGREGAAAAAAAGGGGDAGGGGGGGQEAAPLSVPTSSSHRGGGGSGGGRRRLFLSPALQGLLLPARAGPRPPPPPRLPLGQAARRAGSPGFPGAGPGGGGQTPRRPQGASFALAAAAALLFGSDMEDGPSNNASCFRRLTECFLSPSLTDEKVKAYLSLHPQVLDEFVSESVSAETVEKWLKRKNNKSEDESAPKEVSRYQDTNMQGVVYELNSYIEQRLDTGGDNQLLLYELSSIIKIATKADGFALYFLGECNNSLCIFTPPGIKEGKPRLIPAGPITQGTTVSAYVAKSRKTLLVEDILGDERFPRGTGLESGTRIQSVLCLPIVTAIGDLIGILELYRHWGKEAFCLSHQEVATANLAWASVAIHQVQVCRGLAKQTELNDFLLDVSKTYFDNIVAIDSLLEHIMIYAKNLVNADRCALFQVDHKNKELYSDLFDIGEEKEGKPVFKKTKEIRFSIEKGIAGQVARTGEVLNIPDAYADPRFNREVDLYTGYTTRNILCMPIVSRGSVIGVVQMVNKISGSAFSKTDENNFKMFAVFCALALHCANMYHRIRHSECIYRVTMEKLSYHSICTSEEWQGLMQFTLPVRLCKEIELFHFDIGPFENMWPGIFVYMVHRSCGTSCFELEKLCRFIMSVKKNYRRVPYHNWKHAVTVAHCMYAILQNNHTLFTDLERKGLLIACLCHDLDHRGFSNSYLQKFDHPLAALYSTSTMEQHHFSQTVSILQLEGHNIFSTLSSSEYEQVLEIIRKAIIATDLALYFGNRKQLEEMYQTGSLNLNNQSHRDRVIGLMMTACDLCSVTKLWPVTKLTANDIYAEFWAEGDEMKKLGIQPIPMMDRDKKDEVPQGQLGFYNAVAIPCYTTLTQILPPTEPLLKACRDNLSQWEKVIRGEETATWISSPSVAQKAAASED

For the molecule `COc1ccc2c(c1)C(CC(=O)Nc1cccnc1)=C(C)/C2=C/c1cc(OC)c(OC)c(OC)c1` [MCI-030], the “cellular cAMP level” value is “MCI-030 increased cAMP only in SKOV3 parental and EV 1B9 control cells, but not in the PDE10A KO clones”.
